Measured values taken from patent US20070185013A1, “Use of chk1 inhibitors to control cell proliferation” (ICOS CORPORATION, priority 2003, published 2007).

Legend:
HT29 cells = test: Cell cycle phase distribution by propidium iodide DNA content; type: cell-based, human; conditions: low-level camptothecin, 20 nM for 24 hours
Description: The proportion of cells in different phases of the cell cycle can be measured by those skilled in the art using any one of a variety of techniques. For example, a fluorescent DNA-binding dye, propidium iodide, can be used to distinguish cells in different cell cycle phases. Since cells in G2 have twice as much DNA as cells in G1, and S phase cells show an intermediate amount of DNA, the technique allows one to identify cells in different phases based on the DNA content of a cell. This method can be carried out on cell lines and tumor specimens (Cerra et al., Methods in Cell Biology, 33:1-12, 1990) Furthermore, cells in S phase can be labeled with the nucleotide analog, bromo-deoxyuridine (BrdU) and then fixed and stained with an fluorescent-tagged antibody to BrdU. Both of these methods employ fluorescence cytometry or fluorescence activity cell sorting (FACS) to quantify the proportion of cells staining with these fluorescent markers. […]
Two cell samples, each containing the same human carcinoma cell line (HT29) were prepared. Using propidium iodide (PI) to monitor DNA content, the percentage of cells the G1, S, and G2/M phases of the cell cycle were measured before and after contact with low levels of camptothecin. […]

tumor cells = test: Cell-based proliferation (sensitization) assay (Example 2); conditions: ratio of GI90 of the chemotherapy agent in absence to that in presence of Chk1 inhibitor
Procedure: Chk1 inhibitors were tested in a cell-based proliferation assay for the ability to sensitize tumor cells to ionizing radiation or chemotherapy agents. Chk1 inhibitors were tested in combination with 5-FU, gemicitabine, ionizing radiation, camptothecin, etoposide, hydroxyurea, cisplatin, fludarabine, Ara-C and aphidicolin. For each experiment, a serial dilution of each compound in combination with a ten-point dilution of each chemotherapy agent was included, in order to determine the concentration of chemotherapeutic required to inhibit the growth of 90% (GI90) of the cells in the presence and absence of the Chk1 inhibitor. This ratio of GI90 in the absence of Chk1 inhibitor to that in the presence of Chk1 inhibitor is called the “fold sensitization.” Fold sensitization was plotted as a function of Chk1 inhibitor concentration and the amount of drug required to yield two-fold sensitization was calculated. […] Another parameter analyzed was the fold sensitization achieved at the LD50 (the dose of compound alone that inhibits growth of 50% of cells) for the compound. These two values allow direct ranking of both the potency and toxicity of Chk1 inhibitors with respect to one another.

Chk1 = Chk1 serine 296 phosphorylation, Western blot in HT29 cells; type: cell-based, human; conditions: tumor cells treated with gemcitabine; Chk1 inhibitors for 15 minutes
Procedure: Phosphorylation at this site is not inhibited by Wortinannin, which inhibits Atm and Atr. Therefore the phosphorylation of serine 296 is distinct from phosphorylation at serines 317 and 345 described in Example 12. […] Therefore, this approach may be used to monitor Chk1 activity in tumors in response to Chk1 activators. Further, this approach may be used to measure inhibition of Chk1 activation by Chk1 inhibitors.
Thus, HT 29 cells were treated with 20 μM gemcitabine for two hours. The gemcitabine was washed out of the cell growth media and cells were incubated for 22 additional hours. Protein lysates were prepared and separated by an SDS-polyacrylamide gel electrophoresis. Proteins were transferred to polyvinylidene fluoride (PVDF) membranes and probed with antisera (Cell Signalling) specific for phosphorlyated serine 296 (Cell Signalling). […] Further, HT29 cells treated with selective Chk1 inhibitors for 15 minutes show no serine 296 phosphorylation.

| SMILES | Fold Sensitization to Agent by Chk1 Inhibitor (tumor cells) | other results |
| --- | --- | --- |
| CC[C@@]1(O)C(=O)OCc2c1cc1n(c2=O)Cc2cc3ccccc3nc2-1 [camptothecin] | 5 fold | G1 (%) (HT29 cells; PI staining): 6.75%; G2/M* (%) (HT29 cells; combined total in G2 + M phase): 7% |
| O=c1[nH]cc(F)c(=O)[nH]1 [5-FU, 5-fluorouracil] | 12 fold | – |
| COC[C@H]1OC(=O)c2coc3c2[C@@]1(C)C1=C(C3=O)[C@@H]2CCC(=O)[C@@]2(C)C[C@H]1OC(C)=O [Wortinannin] | – | inhibition of Chk1 serine 296 phosphorylation (Chk1): not inhibited |
| COc1cc([C@@H]2c3cc4c(cc3[C@@H](O[C@@H]3O[C@@H]5CO[C@@H](C)O[C@H]5[C@H](O)[C@H]3O)[C@H]3COC(=O)[C@H]23)OCO4)cc(OC)c1O [Etoposide, etoposide] | 3 fold | – |
| N.N.[Cl][Pt][Cl] [Cisplatin, cisplatin] | 3 fold | – |
| Nc1ccn([C@@H]2O[C@H](CO)[C@@H](O)[C@@H]2O)c(=O)n1 [Ara-C, cytosine arabinoside] | 9 fold | – |
